Test: Cytotoxicity against human HL60 cells after 24 hrs by MTT assay
Format: functional, cell-based
Conditions: HL-60, 24 h

Row | SMILES | IC50 [nM]
1 | CCCCCCCCCC(=O)C[C@H](O)C[C@@H]1CC=CC(=O)O1 | 1200
2 | CCCCCCCCCC(=O)C[C@@H](O)C[C@@H]1CC=CC(=O)O1 | 5300
3 | CCCCCCCCCCCC(=O)C[C@H](O)C[C@@H]1CC=CC(=O)O1 | 970
4 | CCCCCCCCCCCC(=O)C[C@@H](O)C[C@@H]1CC=CC(=O)O1 | 4900
5 | COc1cccc2c1C(=O)c1c(O)c3c(c(O)c1C2=O)C[C@@](O)(C(=O)CO)C[C@@H]3O[C@H]1C[C@H](N)[C@H](O)[C@H](C)O1 [DOXORUBICIN] | 140
